Results as given in patent publication US20250152591A1, “TREATMENT OF HEMATOLOGICAL MALIGNANCIES WITH MENIN INHIBITORS AND P-GLYCOPROTEIN INHIBITORS” (Kura Oncology, Inc., priority 2022, published 2025).
Like-named read-outs stand apart in the source and are kept apart here.

Assays:
[1] = tested on: MV4;11-Control cell line; assay: CellTiter-Glo cell viability assay, MV4;11-Control; format: cell-based; parameters: unit of the concentration uncertain; conditions: second set of experiments
Procedure: (§1) The influence of efflux pumps on the antitumor activity of the test compounds at steady state (more clinically relevant) were evaluated using P-gp-transfected AML cells (MV4;11 cells) in 6-day viability assays.
(§2) A P-gp-expressing KMT2A(MLL)-rearranged cell line model was developed by lentiviral transduction of the MV4;11 parental cell line and then selection for either Luciferase ORF (MV4;11-Control) or P-gp ORF (MV4;11-PGP).
(§3) […] Cell viability was measured by CellTiter-Glo® Luminescent Cell Viability Assay (CTG assay, Promega Corp.) and % Viability was quantified by normalizing to the luminescence values of DMSO-only treated cells. The dose-response curves and IC50's were calculated using GraphPad Prism 9.4.1.
(§4) The measured luminescence in the live cells of the MV4;11-Control and MV4;11-PGP cells that were treated with Compound I only (+DMSO), Compound I+posaconazole […], and valspodar (1 mM) are shown in FIGS. 5A and 5B.
(§5) In a second set of experiments, MV4;11-Control and MV4;11-PGP cell lines were treated as described above with five menin inhibitors, including Compound I, SNDX-5613, Compound A, Compound B, and Compound C, at concentrations ranging from 0 to 1000 nM. All tested compounds dropped in potency due to the P-gp expression as shown in FIGS. 6A-6J and in Tables 5 and 6 (indicated by increased IC50 values between “MV4;11-Control (Compound+DMSO)” and “MV4;11-PGP (Compound+DMSO)” entries).

[2] = tested on: MV4;11-PGP cell line; assay: CellTiter-Glo cell viability assay, MV4;11-PGP; format: cell-based; parameters: unit of the concentration uncertain; conditions: second set of experiments
Procedure: as §1, §2, §3, §4, §5

[3] = target: T1, P-gp (Homo sapiens, UniProt P08183); assay: P-gp substrate assessment using MDR1-MDCK monolayers (Example 1, +/- valspodar); format: in vitro ADME; parameters: expressed in transfected cells; host or cells: MDR1-MDCK cells; conditions: 12-well plates, QC of MDR1-MDCK cell batch
Procedure: MDR1-MDCK cell monolayers were grown to confluence on collagen-coated, microporous membranes in 12-well assay plates. Details of the plates and their certification are shown below. The permeability assay buffer was Hanks' balanced salt solution (HBSS) containing 10 mM HEPES and 15 mM glucose at a pH of 7.4. The buffer in the receiver chamber also contained 1% bovine serum albumin. The dosing solution concentration was 5 μM of test article in the assay buffer+/−1 μM valspodar. Cells were first pre-incubated for 30 min with HBSS containing+/−1 μM valspodar. Cell monolayers were dosed on the apical side (A-to-B) or basolateral side (B-to-A) and incubated at 37° C. with 5% CO2 in a humidified incubator. Samples were taken from the donor and receiver chambers at 120 min. Each determination was performed in duplicate. The flux of lucifer yellow was also measured post-experimentally for each monolayer to ensure no damage was inflicted to the cell monolayers during the flux period. All samples were assayed by LC-MS/MS using electrospray ionization. Liquid chromatography conditions are summarized as follows: Column: Thermo BDS Hypersil C18 30×2.1 mm, […], with guard column; M.P. Buffer: 25 mM ammonium formate buffer, pH 3.5; Aqueous Reservoir (A): 90% water, 10% buffer; Organic Reservoir (B): 90% acetonitrile, 10% buffer; Flow Rate: 350 μL/minute; Total run time: 3.5 min; Autosampler: 10 μL injection volume; Autosampler wash: water/methanol/2-propanol: 1/1/1; with 0.2% formic acid.
The apparent permeability (Papp) and percent recovery were calculated as follows: […]
where, • dCr/dt is the slope of the cumulative concentration in the receiver compartment versus time in μM s^−1; • Vr is the volume of the receiver compartment in cm^3; • Vd is the volume of the donor compartment in cm^3; • A is the area of the insert (1.13 cm^2 for 12-well); • CA is the average of the nominal dosing concentration and the measured 120 minute donor concentration in μM; • CN is the nominal concentration of the dosing solution in μM; • Cr^final is the cumulative receiver concentration in μM at the end of the incubation period; • Cd^final is the concentration of the donor in μM at the end of the incubation period.
Efflux ratio (ER) is defined as Papp (B-to-A)/Papp (A-to-B).
• ER≥2.0 without valspodar, and reduced by ≥50% with valspodar: Positive • ER≥2.0 without valspodar, and reduced by <50% with valspodar: Negative • ER<2.0 without and with valspodar: Negative

[4] = target: T1, P-gp; assay: MDR1-MDCK P-gp Substrate Identification (Example 2, +/- elacridar); conditions: MDCK-MDR1, pH 7.4
Procedure: MDCK epithelial cells stably transfected with the human MDR1 gene (the gene encoding for the efflux protein P-gp) were seeded on a Multiscreen™ plate (Millipore, MA, USA) and formed a confluent monolayer over 4 days prior to the experiment. To verify the MDR1-MDCK cell monolayers were properly formed, aliquots of the cell buffers were analyzed by fluorescence to determine the transport of the impermeable dye Lucifer Yellow. Any deviations from control values are reported.
MDR1-MDCK cells were incubated with these buffers for 2 h, and the receiver side buffer was removed for analysis by LC-MS/MS.
The rate of passage of the test compounds through this cell monolayer barrier from apical to basolateral (A→B) in this bi-directional transport assay was used to determine the apparent permeability coefficient (Papp). Receiver, donor, and dosing solution concentrations were quantified using a calibration curve prepared in transport buffer solution (pH 7.4). Papp is calculated as
where dQ/dt is rate of permeation, C0 is initial concentration of test agent, and A is the area of monolayer (0.11 cm^2). The basolateral to apical (B→A) to apical to basolateral (A→B) apparent permeability coefficient ratio
When RE>2 for a tested compound, the tested compound is a potential substrate for P-gp.
Rantinidine, talinolol, warfarin, and loperamide (±2 μM elacridar) were tested as reference compounds and each was tested at a concentration of 10 μM.

[5] = 144 h, 0 to 1000 nM, Table 5, read-out: IC50 MV4;11-Control (Compound + DMSO)
[6] = 144 h, 0 to 1000 nM, Table 6, read-out: IC50 MV4;11-Control (Compound + DMSO)
[7] = posaconazole (1.5 (unit uncertain)), Table 5, read-out: IC50 MV4;11-Control (Compound + posaconazole)
[8] = valspodar (1 (unit uncertain)), Table 6, read-out: IC50 MV4;11-Control (Compound + valspodar)
[9] = 144 h, 0 to 1000 nM, Table 5, read-out: IC50 MV4;11-PGP (Compound + DMSO)
[10] = 144 h, 0 to 1000 nM, Table 6, read-out: IC50 MV4;11-PGP (Compound + DMSO)
[11] = posaconazole (1.5 (unit uncertain)), Table 5, read-out: IC50 MV4;11-PGP (Compound + posaconazole)
[12] = valspodar (1 (unit uncertain)), Table 6, read-out: IC50 MV4;11-PGP (Compound + valspodar)

T1 sequence (P08183 whole entry): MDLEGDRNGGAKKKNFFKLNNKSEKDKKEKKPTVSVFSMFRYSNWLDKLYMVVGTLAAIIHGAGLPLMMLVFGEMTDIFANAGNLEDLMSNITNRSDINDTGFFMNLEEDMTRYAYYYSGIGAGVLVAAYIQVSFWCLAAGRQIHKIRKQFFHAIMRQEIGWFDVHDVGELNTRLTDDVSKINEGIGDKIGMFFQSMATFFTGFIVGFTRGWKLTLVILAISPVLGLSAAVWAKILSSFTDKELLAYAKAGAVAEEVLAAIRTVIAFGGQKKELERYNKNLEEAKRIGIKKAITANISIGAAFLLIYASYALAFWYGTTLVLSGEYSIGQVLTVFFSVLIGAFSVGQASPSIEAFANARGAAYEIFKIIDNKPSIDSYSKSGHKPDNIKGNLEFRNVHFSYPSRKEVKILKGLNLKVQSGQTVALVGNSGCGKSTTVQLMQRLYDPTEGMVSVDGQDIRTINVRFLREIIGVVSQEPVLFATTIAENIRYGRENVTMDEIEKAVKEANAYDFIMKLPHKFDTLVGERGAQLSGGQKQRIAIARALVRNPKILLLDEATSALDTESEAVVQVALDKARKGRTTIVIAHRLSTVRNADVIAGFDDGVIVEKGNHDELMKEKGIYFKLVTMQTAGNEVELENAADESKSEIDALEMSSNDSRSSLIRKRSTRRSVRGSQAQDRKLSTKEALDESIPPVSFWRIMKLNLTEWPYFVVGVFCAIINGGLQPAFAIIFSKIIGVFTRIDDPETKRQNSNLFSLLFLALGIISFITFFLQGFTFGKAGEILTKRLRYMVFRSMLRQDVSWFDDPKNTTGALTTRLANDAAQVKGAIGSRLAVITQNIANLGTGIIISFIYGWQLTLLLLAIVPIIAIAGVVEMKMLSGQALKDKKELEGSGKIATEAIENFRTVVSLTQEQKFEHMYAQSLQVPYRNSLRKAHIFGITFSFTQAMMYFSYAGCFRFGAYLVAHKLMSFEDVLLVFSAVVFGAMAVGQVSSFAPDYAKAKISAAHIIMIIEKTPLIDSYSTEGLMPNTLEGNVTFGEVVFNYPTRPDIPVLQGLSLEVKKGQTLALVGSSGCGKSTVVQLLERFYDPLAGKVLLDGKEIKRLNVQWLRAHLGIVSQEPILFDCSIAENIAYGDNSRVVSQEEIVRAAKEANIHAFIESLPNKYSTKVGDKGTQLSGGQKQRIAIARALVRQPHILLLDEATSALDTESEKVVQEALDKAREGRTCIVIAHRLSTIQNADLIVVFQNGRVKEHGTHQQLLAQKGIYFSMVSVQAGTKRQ

SMILES	IC50 [1, 5] [µM]	IC50 [1, 6] [µM]	IC50 [1, 7] [µM]	IC50 [1, 8] [µM]	IC50 [2, 9] [µM]	IC50 [2, 10] [µM]	IC50 [2, 11] [µM]	IC50 [2, 12] [µM]	Papp A→B at 2 h [4] [nm/s]	Papp B→A at 2 h [4] [nm/s]	other results
COc1cc(-c2ccc(CN[C@H]3C[C@@H](O)[C@@H](N(C)c4ncnc5sc(CC(F)(F)F)cc45)C3)cc2)nnc1OC [Compound A]	0.00228	0.00207	0.00201	0.0021	0.022	0.0213	0.00491	0.00241			
CCN(C(=O)c1cc(F)ccc1Oc1nncnc1N1CCC2(C1)CN([C@H](CCCN(C)CCOC)C(C)C)C2)C(C)C [Compound B]	0.00332	0.0041	0.00251	0.003	0.108	0.114	0.00591	0.00315			
C=CC(=O)N[C@@H]1CCCN(Cc2ccnc(C(=O)Nc3ccc(-c4cc5c(N6CCOCC6)ncnc5[nH]4)cc3)c2)C1 [Compound C]	0.236	0.267	0.222	0.23	0.716	0.764	0.349	0.231			
C[C@H]1O[C@@H](O[C@H]2[C@@H](O)C[C@H](O[C@H]3[C@@H](O)C[C@H](O[C@H]4CC[C@@]5(C)[C@H](CC[C@@H]6[C@@H]5C[C@@H](O)[C@]5(C)[C@@H](C7=CC(=O)OC7)CC[C@]65O)C4)O[C@@H]3C)O[C@@H]2C)C[C@H](O)[C@@H]1O [Digoxin]											B-to-A Papp (cell batch quality control) [3]: 17.6 10^−6 cm/s; efflux ratio (cell batch quality control) [3]: 243; Papp A→B ([3]; dog, read-out: A-to-B Papp (cell batch quality control)): 0.7 nm/s
CN(C)C(=O)C(CCN1CCC(O)(c2ccc(Cl)cc2)CC1)(c1ccccc1)c1ccccc1 [Loperamide]									7.92	612	
CC(C)NCC(O)COc1cccc2ccccc12 (stereo not shown) [Propanolol]											Papp ([3]; dog, read-out: Papp (cell batch quality control)): 150 nm/s
CNC(=C[N+](=O)[O-])NCCSCc1ccc(CN(C)C)o1 [Ranitidine]									0.514	43.5	
CC(=O)CC(c1ccccc1)c1c(O)c2ccccc2oc1=O (stereo not shown) [Warfarin]									215	323	
